Patent US10233205B2, “Magnetic resonance imaging contrast agent capable of detecting hydrogen peroxide and reducing reactive oxygen species” (Auburn University, priority 2015, dated 2019)

Tests used:
[1] = T1-weighted relaxivity (r1) on 3 T clinical MRI scanner; assay type: physicochemical; conditions: for r1 after addition of H2O2 / r1, second series of experiments, after H2O2 (oxidized form) / r1, second series of experiments, before H2O2 (reduced form) / r1 (T1-weighted relaxivity): 50 mM HEPES pH 7.00, 3 T; for r1 after addition of H2O2 / r1 (T1-weighted relaxivity): 25° C.; for r1, second series of experiments, after H2O2 (oxidized form) / r1, second series of experiments, before H2O2 (reduced form): 298 K; for r1 (T1-weighted relaxivity): no oxidant
Text: All MRI data were collected at the Auburn University MRI Research Center (Auburn, Ala.) on a Siemens Verio open-bore 3-T MRI clinical scanner. A 15-channel knee coil was used to simultaneously image 12-26 samples. An inversion recovery (IR) sequence was used that featured a non-selective adiabatic inversion pulse followed by a slice-selective gradient recalled echo (GRE) readout after a delay period corresponding to the inversion time (TI).^1-2 The GRE was a saturation readout, such that only one line of k-space was acquired per repetition time (TR). This method was selected to maximize both the signal strength and the accuracy of the T1 estimates. Specific imaging parameters were as follows: TR was set to 4 s, TI was varied from 4.8 to 2500 ms over 37 steps, the echo time (TE) was set to 3.6 ms, the flip angle equaled 90°, averages=1, slice thickness=5 mm, field of view=140×140 mm, matrix=128×128, resulting in a pixel size of 1.1×1.1×5.0 mm. All samples were run in 50 mM solutions of HEPES in water, buffered to pH 7.0 and kept at […]. The manganese content was systematically varied from 0.10 to 1.00 mM. The inverses of the T1 values were plotted versus the concentration of Mn(II) to obtain r1 values. All reported r1 values are averages from the results of two separate series of experiments. Each series of experiments used a different batch of 1.
Image analysis was performed using custom Matlab programs (Mathworks, Natick, Mass.). The initial TI=4.8 ms image served as a baseline to determine circular region of interest (ROI) boundaries for each sample; from these, the mean pixel magnitudes for each ROI were calculated. For each of the 36 subsequent TI images, the same ROI boundaries were applied and the mean pixel magnitude calculations were repeated. This gave consistent ROI spatial definitions and a corresponding time course of magnitudes for each of the samples over all the TI time points. Each sample's complex phase was used to correct the magnitude polarity to produce a complete exponential T1 inversion recovery curve. The Nelder-Mead simplex algorithm^3 was applied to each sample's exponential curve to estimate its corresponding T1 value.
(§1) For the relaxivity measurements, all samples were run in 298 K aqueous solutions containing 50 mM HEPES buffered to pH 7.00, using a 3 T field provided by a clinical MRI scanner. The data were fit to the indicated linear equations; the y-intercepts were within error of 1/T1 measurements associated with two control samples that contained no Mn(II): (A) 10 mM H2O2 in 50 mM HEPES buffer and (B) pure 50 mM HEPES buffer (both 0.46 s^−1).
as §1, with “All” for “For the relaxivity measurements, all”, “s^−1). The oxidation of 1 by 2,3-dichloro-5,6-dicyano-1,4-benzoquinone (DDQ) occurred in CH2Cl2. After the reaction occurred, the 2,3-dichloro-5,6-dicyanoquinol product was removed via filtration, the CH2Cl2 was removed, and the sample was dissolve in HEPES buffer for MRI analysis. The other oxidation reactions occurred entirely in HEPES buffer.” for “s^−1).”
The capability of 3 to serve as a MRI contrast agent was assessed with a 3 T clinical MRI scanner. All samples were run in 298 K aqueous solutions containing 50 mM HEPES buffered to pH 7.00, using a 3 T field provided by a clinical MRI scanner. All samples were prepared under air. The oxidized samples were prepared by directly adding H2O2 to solutions of 3 in aqueous solutions buffered to pH 7.0. The oxidation reactions were allowed to proceed for 30 min at 298 K before the T1 measurements were taken. […]

H9c2 cells = assay: Cytotoxicity, CyQUANT cell number; assay type: cell-based; design: dose tolerated by H9c2 cells: unit not given here
Protocol: H9c2 cells were obtained from the American Tissue Type Collection (Manassas, Va., USA) and grown at 37° C. with 95% humidity and 5% CO2. Cells were grown in Dulbecco's modified eagles medium (DMEM) supplemented with 10% fetal bovine serum. Experiments were performed at 70-80% confluence. All experiments were performed in DMEM in the absence of fetal bovine serum. To determine the cytotoxic effects of 1 and 2, the H9c2 cells were exposed to increasing concentrations of these reagents or their vehicle in DMEM for either 4 or 24 h. The cell number was assessed using the CyQUANT Cell Proliferation Assay Kit (Life Technologies Corporation, Carlsbad, Calif.) per manufacturer's instructions. Cell number was expressed as a percentage of that measured for the vehicle-treated cells. Values are expressed as mean and SEM and represent three experiments performed in triplicate.
The toxicity of 3 was tested using H9c2 cells in order to facilitate comparison to that of 1. H9c2 cells were obtained from the American Tissue Type Collection (Manassas, Va., USA) and grown at 37° C. with 95% humidity and 5% CO2. Cells were grown in Dulbecco's modified eagles medium (DMEM) supplemented with 10% fetal bovine serum. Experiments were performed at 70-80% confluence. To determine the cytotoxic effects of 3, H9c2 cells were exposed to increasing concentrations of 3 ([…]) or its vehicle in DMEM for 4 or 24 hr. Cell number was assessed using the CyQUANT Cell Proliferation Assay Kit (Life Technologies Corporation, Carlsbad, Calif.) per manufacturer's instructions. Cell number was expressed as percentage of the vehicle-treated cells. Values are expressed as mean and standard deviation and represent 2-4 experiments performed in triplicate. The bars marked with an * display a significant difference from the vehicle-treated cell number for corresponding time period (p<0.05).

| Compound | r1 after addition of H2O2 ([1]; 10 mM H2O2) | r1, second series of experiments, after H2O2 (oxidized form) ([1]; 10 mM H2O2) | r1, second series of experiments, before H2O2 (reduced form) [1] | r1 (T1-weighted relaxivity) [1] | H9c2 cells surviving (H9c2 cells; 10 μM, 24 h) | concentration without cell death / within error of control (H9c2 cells; 4 h) | dose tolerated by H9c2 cells (H9c2 cells; 4 h) | concentration without impact on H9c2 viability (H9c2 cells; 24 h) | dose tolerated by H9c2 cells (H9c2 cells; 24 h) | increase of relaxivity upon exposure to H2O2 [1] | r1 response to H2O2 ([1]; 10 mM H2O2) |
| --- | --- | --- | --- | --- | --- | --- | --- | --- | --- | --- | --- |
| CC#N.O=S(=O)([O-])C(F)(F)F.O=S(=O)([O-])C(F)(F)F.[Mn+2].[O-]c1ccc(O)cc1CN(CCN(Cc1ccccn1)Cc1ccccn1)Cc1ccccn1 [Complex 1, Acetonitrilo(N-(2,5-dihydroxy-benzyl)-N,N′,N′-tris(2-pyridinylmethyl)-1,2-ethanediamine)manganese(II) triflate] | 5.30 mM⁻¹ s⁻¹ | 5.30 mM⁻¹ s⁻¹ | 4.73 mM⁻¹ s⁻¹ | 4.73 mM⁻¹ s⁻¹ | less than 50% | 10 µM | 10 | 1.0 µM | 1.0 |  |  |
| CC#N.Cc1ccc(O)c(CN(CCN(Cc2ccccn2)Cc2ccccn2)Cc2ccccn2)c1.[Mn+2].[O-][Cl+3]([O-])([O-])[O-].[O-][Cl+3]([O-])([O-])[O-] [Complex 2, reference compound] |  |  |  | 4.39 mM⁻¹ s⁻¹ |  |  | 10 |  |  |  |  |
| cis-Dibromo(N,N′-bis(2,5-dihydroxybenzyl)-N,N′-bis(2-pyridinylmethyl)-1,2-ethanediamine)manganese(II) [Complex 3] | 7.17 (+0.15) mM^−1 s^−1 | 7.32 mM⁻¹ s⁻¹ | 5.64 mM⁻¹ s⁻¹ | 5.46 (+0.19) mM^−1 s^−1 |  | 50 µM |  | 10 µM |  | 31% | 1.71 mM⁻¹ s⁻¹ |
